Patent US20090143279A1 (priority 2007, published 2009)
Where “and” joins values, the source holds several entries; their conditions need not be identical. Equal values may be shown once. Read-outs that look alike come from different tables or passages of the source.

How the values were obtained:
mtOXPHOS transcripts = format: cell-based, mouse; details: for mito-OXPHOS Z: Table 7, C2C12 myotubes, 48 h, composite Z-score
nuOXPHOS transcripts = format: cell-based, mouse; details: for nucOXPHOS Z: Table 7, C2C12 myotubes, 48 h, composite Z-score
reactive oxygen species = format: cell-based, mouse
OXPHOS gene expression = format: cell-based, mouse
cytochrome c = format: cell-based, mouse
Sequence of cytochrome c (P62897 whole entry): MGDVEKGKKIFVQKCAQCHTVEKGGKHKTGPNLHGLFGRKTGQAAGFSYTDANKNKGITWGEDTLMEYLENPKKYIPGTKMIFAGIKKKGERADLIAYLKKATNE

[1] = system: mitochondrial membrane potential; format: cell-based, mouse
[2] = system: cellular dehydrogenase activity
[3] = Table 3, differentiated C2C12 myotubes, 48 h treatment, composite Z-score vs DMSO
[4] = Table 5, C2C12 myotubes, 48 h, composite Z-score
[5] = retest at 20 nM to 20 μM, FIG. 6a
[6] = Table 6, C2C12 myotubes, 48 h, composite Z-score
[7] = normalized composite Z-score vs mock-treated (DMSO) wells, Conc 20 μM
[8] = composite Z-score vs DMSO, Conc 20 μM
[9] = 20 μM, composite Z-score vs DMSO
[10] = composite Z-score vs mock-treated (DMSO) wells, Conc 20 μM

O=C1C(Cl)=C(Cl)C(=O)C(Cl)=C1Cl [Chloranil, reference compound]
mito-OXPHOS Z (mtOXPHOS transcripts): 2.50 | nucOXPHOS Z (nuOXPHOS transcripts): −2.45

COc1cc2c(c(OC)c1OC)-c1ccc(OC)c(=O)cc1[C@@H](NC(C)=O)CC2 [Colchicine, reference compound]
ROS levels (reactive oxygen species): did not display the same decrease in ROS levels | OXPHOS expression (OXPHOS gene expression): modest increase | nucOX (nuOXPHOS transcripts): 0.807 and 1.549

CO[C@H]1C=C[C@@]23c4cc5c(cc4CN(C[C@@H]2O)[C@H]3C1)OCO5 [Crinamine, reference compound]
mito-OXPHOS Z (mtOXPHOS transcripts): −2.89 | nucOXPHOS Z (nuOXPHOS transcripts): 2.27

CCN(CC)C(=S)SSC(=S)N(CC)CC [Disulfiram, reference compound]
mito-OXPHOS Z (mtOXPHOS transcripts): 0.93 | nucOXPHOS Z (nuOXPHOS transcripts): −4.10

COc1cccc2c1C(=O)c1c(O)c3c(c(O)c1C2=O)C[C@@](O)(C(=O)CO)C[C@@H]3O[C@H]1C[C@H](N)[C@H](O)[C@H](C)O1 [Doxorubicin, reference compound]
mito-OXPHOS Z (mtOXPHOS transcripts): 2.57 | nucOXPHOS Z (nuOXPHOS transcripts): −1.85

CC[C@H]1CN2CCc3cc(OC)c(OC)cc3[C@@H]2C[C@@H]1C[C@H]1NCCc2cc(OC)c(OC)cc21 [Emetine, reference compound]
cyt c (cytochrome c): −1.644 | cyt c (composite Z-score) (cytochrome c): −0.191 | nuOXPHOS expression (nuOXPHOS transcripts): preferentially increase

O=c1[nH]cc(F)c(=O)[nH]1 [Fluorouracil, reference compound]
mito-OXPHOS Z (mtOXPHOS transcripts): 1.55 | nucOXPHOS Z (nuOXPHOS transcripts): 1.50

COc1ccc2c(c1)c(CC(=O)O)c(C)n2C(=O)c1ccc(Cl)cc1 [Indomethacin, reference compound]
mito-OXPHOS Z (mtOXPHOS transcripts): 2.40 | nucOXPHOS Z (nuOXPHOS transcripts): 1.32

CC1=CC(=O)c2ccccc2C1=O [Menadione, reference compound]
mito-OXPHOS Z (mtOXPHOS transcripts): 2.13 | nucOXPHOS Z (nuOXPHOS transcripts): −3.40

Nc1cc(N2CCCCC2)nc(N)[n+]1[O-] [Minoxidil, reference compound]
mito-OXPHOS Z (mtOXPHOS transcripts): 1.37 | nucOXPHOS Z (nuOXPHOS transcripts): 2.38

CN(C)C(=O)Oc1cccc([N+](C)(C)C)c1 [Neostigmine, reference compound]
mito-OXPHOS Z (mtOXPHOS transcripts): −3.45 | nucOXPHOS Z (nuOXPHOS transcripts): −3.54

COC(=O)Nc1nc2cc(C(=O)c3cccs3)ccc2[nH]1 [Nocodazole, methyl[5-(2-thienylcarbonyl)-1H-benzimidazol-2-yl]carbamate, reference compound]
ROS Zscore (reactive oxygen species; [3]): −1.099 | ROS Zscore (reactive oxygen species; [4]): −1.099 | ROS levels (reactive oxygen species; primary screen, in words): suppressing ROS levels | dose at which ROS levels decreased (reactive oxygen species; [5]): 2 µM | GEHTS_Zscore (OXPHOS gene expression; [3]): 2.675 | GEHTS_Zscore (OXPHOS gene expression; [4]): 2.675 | OXPHOS expression (OXPHOS gene expression; primary screen, in words): boost OXPHOS expression | dose at which OXPHOS expression increased (OXPHOS gene expression; [5]): 2 µM

N=C1C=CC(=C(c2ccc(N)cc2)c2ccc(N)cc2)C=C1 [Pararosaniline, reference compound]
mito-OXPHOS Z (mtOXPHOS transcripts): −5.43 | nucOXPHOS Z (nuOXPHOS transcripts): −2.25

OCCN1CCN(CCCN2c3ccccc3Sc3ccc(Cl)cc32)CC1 [Perphenazine, reference compound]
decline of nuOXPHOS expression (nuOXPHOS transcripts; 20 μM, within the first hour of treatment): 21%

CC[C@@]1(O)C[C@H](O[C@H]2C[C@H](N(C)C)[C@H](O)[C@H](C)O2)c2c(cc3c(c2O)C(=O)c2c(O)ccc(O)c2C3=O)[C@H]1C(=O)OC [Pyrromycin, reference compound]
mito-OXPHOS Z (mtOXPHOS transcripts): −2.67 | nucOXPHOS Z (nuOXPHOS transcripts): −2.89

CCN(CC)CCCC(C)Nc1c2ccc(Cl)cc2nc2ccc(OC)cc12 (centres unmarked) [Quinacrine, reference compound]
mito-OXPHOS Z (mtOXPHOS transcripts): −2.81 | nucOXPHOS Z (nuOXPHOS transcripts): −2.65

CC(=O)Nc1ccc(O)cc1 [acetaminophen]
ROS (reactive oxygen species): 0.527 | mitoOX (mtOXPHOS transcripts): 0.317

CCCSc1ccc2nc(NC(=O)OC)[nH]c2c1 [albendazole, reference compound]
ROS Zscore (reactive oxygen species): −1.434 | GEHTS_Zscore (OXPHOS gene expression): 2.379 | cyt c (cytochrome c): −0.280

C=C(C)[C@@H]1CC[C@]2(CO)CC[C@]3(C)[C@H](CC[C@@H]4[C@@]5(C)CC[C@H](O)C(C)(C)[C@@H]5CC[C@]43C)[C@@H]12 [betulin]
nucOX (nuOXPHOS transcripts): 0.598

O=c1cccc2n1C[C@@H]1CNC[C@H]2C1 [cytisine]
ROS (reactive oxygen species): 1.150 | GE-HTS (OXPHOS gene expression): 0.025 | cyt c (cytochrome c): 0.186 and 0.095

C[C@H]1C/C=C/[C@H]2[C@@H]3O[C@]3(C)[C@@H](C)[C@H]3[C@H](Cc4ccccc4)NC(=O)[C@]32OC(=O)O/C=C/[C@@](C)(O)C1=O [cytochalasin e, reference compound]
ROS Zscore (reactive oxygen species; [3]): −2.109 | GEHTS_Zscore (OXPHOS gene expression; [3]): 2.827

COc1ccc2c(c1)OCC(Cc1ccc(OC(C)=O)c(OC)c1)C2=O (centres unmarked) [deoxysappanone (B) 7,3′-dimethyl ether acetate, reference compound]
ROS Zscore (reactive oxygen species; [6]): −1.894 | GEHTS_Zscore (OXPHOS gene expression; [6]): −0.723

COc1ccc2c(c1)OCC(Cc1ccc(OC)c(OC)c1)C2=O (centres unmarked) [deoxysappanone (B) trimethyl ether, reference compound]
ROS Zscore (reactive oxygen species; [6]): 1.064 | GEHTS_Zscore (OXPHOS gene expression; [6]): 0.768

COC1=CC(=O)C[C@@H](C)[C@]12Oc1c(Cl)c(OC)cc(OC)c1C2=O [griseofulvin, reference compound]
ROS Zscore (reactive oxygen species; [4]): 0.371 | ROS levels (reactive oxygen species; primary screen, in words): did not display the same decrease in ROS levels | GEHTS_Zscore (OXPHOS gene expression; [4]): 2.199 | OXPHOS expression (OXPHOS gene expression; primary screen, in words): modest increase

O=C1C[C@@H](c2ccc(O)cc2)Oc2cc(O)ccc21 [liquiritigenin]
ΔΨm [1, 7]: 1.004 | ROS (reactive oxygen species; [7]): 0.301 | GE-HTS (OXPHOS gene expression; [7]): −0.749 | MTT [2, 7]: −0.429 | mitoOX (mtOXPHOS transcripts; [7]): −1.069 | cyt c (cytochrome c; [7]): 0.523 | Viability (C2C12 myotubes; [7]): 1.353

CCOC(=O)N1CCC(=C2c3ccc(Cl)cc3CCc3cccnc32)CC1 [loratadine]
ΔΨm [1]: 0.191 | ROS (reactive oxygen species): 0.764 | GE-HTS (OXPHOS gene expression): −0.306 | MTT [2]: −1.609 | cyt c (cytochrome c): −0.317 | Viability (C2C12 myotubes): 0.552

CC [methylmethane]
ΔΨm [1]: −0.924 | ROS (reactive oxygen species): 0.909 | MTT [2]: −1.330 | cyt c (cytochrome c): 0.221 | Viability (C2C12 myotubes): −1.159

COC1=CC(=O)C(O)=C/C1=C\C=C\c1ccccc1 [obtusaquinone]
ΔΨm [1, 8]: −3.829 | ROS (reactive oxygen species; [8]): −1.119 | MTT [2, 8]: −6.409 | cyt c (cytochrome c; [8]): −5.381 | Viability (C2C12 myotubes; [8]): −4.658

CC(=O)CCCCn1c(=O)c2c(ncn2C)n(C)c1=O [pentoxifylline]
ΔΨm [1, 9]: −0.696 | ROS (reactive oxygen species; [9]): 0.182 | GE-HTS (OXPHOS gene expression; [9]): 0.062 | MTT [2, 9]: −0.600 | cyt c (cytochrome c; [9]): −0.798 | nucOX (nuOXPHOS transcripts; [9]): 0.292 | Viability (C2C12 myotubes; [9]): 0.375

CC(=O)O[C@H]1CC[C@@]2(C)C(=CC[C@@H]3[C@@H]2CC[C@]2(C)C(=O)CC[C@@H]32)C1 [praesterone acetate]
ΔΨm [1]: 1.329 | ROS (reactive oxygen species): 0.054 | MTT [2]: 1.084 | cyt c (cytochrome c): −0.521 | Viability (C2C12 myotubes): 1.018

COC(=O)[C@]1(C)CC[C@]2(C)CC[C@]3(C)C4=CC=C5C(=CC(=O)C(O)=C5C)[C@]4(C)CC[C@@]3(C)[C@@H]2C1 [pristimerin]
ΔΨm [1, 8]: −3.651 | ROS (reactive oxygen species; [8]): −3.693 | MTT [2, 8]: −6.164 | cyt c (cytochrome c; [8]): −5.896 | Viability (C2C12 myotubes; [8]): −5.473

C=C(C)/C=C1/C=CC(=O)C(C)=C1 [retusoquinone]
ΔΨm [1, 10]: −3.628 | ROS (reactive oxygen species; [10]): −3.565 | MTT [2, 10]: −6.075 | cyt c (cytochrome c; [10]): −5.303 | Viability (C2C12 myotubes; [10]): −5.371

C=C(C)CCCC(C)CCOC(C)=O (centres unmarked) [rhodinyl acetate]
ΔΨm [1]: −0.631 | ROS (reactive oxygen species): −0.024 | MTT [2]: −0.833 | cyt c (cytochrome c): 0.137 | Viability (C2C12 myotubes): −0.197

COc1ccc2c(c1)OCC(=Cc1ccc(O)c(O)c1)C2=O [sappanone (A) 7-methyl ether, reference compound]
ROS Zscore (reactive oxygen species; [6]): −1.493 | GEHTS_Zscore (OXPHOS gene expression; [6]): 1.410

COc1ccc2c(c1)OC/C(=C/c1ccc(OC)c(OC)c1)C2=O [sappanone (A) trimethyl ether, reference compound]
ROS Zscore (reactive oxygen species; [6]): 0.1195 | GEHTS_Zscore (OXPHOS gene expression; [6]): 2.376

COc1ccc2c(c1)OC[C@@H](Cc1ccc(OC)c(OC)c1)[C@H]2O [tetrahydrosappanone (A) trimethyl ether, reference compound]
ROS Zscore (reactive oxygen species; [6]): 0.274 | GEHTS_Zscore (OXPHOS gene expression; [6]): 0.583

O=C1C(O)=C(O)C(=O)C(O)=C1O [tetrahydroxy-1,4-quinone]
ΔΨm [1]: −0.511 | ROS (reactive oxygen species): 0.667 | MTT [2]: −1.965 | cyt c (cytochrome c): −0.785 | Viability (C2C12 myotubes): −1.006

CN(C)CCCN1c2ccccc2Sc2ccc(C(F)(F)F)cc21 [triflupromazine]
ROS (reactive oxygen species): 1.208 | GE-HTS (OXPHOS gene expression): 0.225 | nucOX (nuOXPHOS transcripts): 0.404

(S)-(−)-atenolol
ΔΨm [1]: 0.396 | ROS (reactive oxygen species): −0.554 | MTT [2]: −0.552 | cyt c (cytochrome c): 0.030 | Viability (C2C12 myotubes): 0.012

L-methionine sulfoximine
ΔΨm [1]: −0.703 | ROS (reactive oxygen species): 0.762 | MTT [2]: −1.902 | cyt c (cytochrome c): −0.412 | Viability (C2C12 myotubes): −0.928

dimenhydrinate
ΔΨm [1, 8]: −0.890 | ROS (reactive oxygen species; [8]): 0.339 | GE-HTS (OXPHOS gene expression; [8]): −0.225 | MTT [2, 8]: −1.505 | nucOX (nuOXPHOS transcripts; [8]): −0.086

podophyllotoxin acetate [reference compound]
ROS Zscore (reactive oxygen species; [3]): −1.656 | GEHTS_Zscore (OXPHOS gene expression; [3]): 3.506

pyrantel tartrate
ΔΨm [1]: −1.028 | ROS (reactive oxygen species): 1.579 | MTT [2]: −1.214 | cyt c (cytochrome c): −0.306 | Viability (C2C12 myotubes): 0.330

sappanone (A) dimethyl ether [reference compound]
ROS Zscore (reactive oxygen species; [6]): −2.429 | GEHTS_Zscore (OXPHOS gene expression; [6]): 0.524
